Publication PMC10499603, “Polθ is phosphorylated by PLK1 to repair double-strand breaks in mitosis” (Nature, 2023)

Key:
[1] = tested on: RPE-1 cells expressing GFP–Polθ; test: siRNA screen, cell count; format: cell-based, human
From the text: (§1) The Human DDR siRNA library comprising 1,746 single siRNAs representing 582 human genes (3 siRNAs per gene) was obtained from ThermoFisher Scientific (A30089). For controls, siRNAs targeting GL2, kinesin family member 11 (KIF11) and GM130 were used to assess transfection efficacy and induced cell toxicity. FANCD2 siRNA ([…]dT, defined as FANCD2-ctrl in Supplementary Table 1) was used as a positive control inhibiting Polθ foci formation. RPE-1 cells expressing GFP–Polθ (250 cells per well in 384-well plates) were grown overnight. siRNAs were incubated 15 min with 0.05 μl Interferin reagent (Polyplus transfection) and Opti-MEM (ThermoFisher Scientific) prior to being transferred into each 384-well plate wells, to obtain a 10 nM final concentration. Cells were irradiated 72 h after transfection, at a dose of 5 Gy (226 s) with the CIXD irradiator (RadeXp platform, Institut Curie) and incubated at 37 °C, 5% CO2 for 2 h. […] Polθ was then identified as organelles in the nuclei area and quantified by the average intensity of pixels within the defined organelles region. […] Corrected values were normalized as follows: sample median and median absolute deviation (MAD) were calculated from the Interferin-treated population of each internal plate data points (named as Ref pop) and used to compute robust Z-scores[59] […]

[2] = tested on: Polθ foci formation in RPE-1 cells expressing GFP–Polθ; test: siRNA screen for ionizing radiation-induced Polθ foci formation; format: cell-based, human; conditions: 10 nM siRNA, 72 h, then 5 Gy, 2 h; cells with at least 5 Polθ foci; median RZ score of the three siRNAs, three replicate experiments
From the text: as §1

## GGAGAUUGAUGGUCUACUATdT (GGAGAUUGAUGGUCUACUATT; chemistry not given here) [fancd2-ctrl]
[1]
  Toxicity threshold: Toxic
[2]
  Robust z score_corrected_Cells multi-foci_MultiFoci (%): -7.14
